Series [1] concerns the target human Nox4 (Homo sapiens (Human), UniProt Q9NPH5). The experiment in a line: Nox4 assay using stably transfected HEK cells. The format is cell-based. The method, then:
(§1) Nox2 assay in human neutrophils: Human neutrophils were obtained from healthy volunteers (REF). LO12 luminescence was quantified as above. Nox4 assay using stably transfected HEK cell: HEK cells stably transfected with human Nox4 were incubated with varying concentrations of compound along with LO12.
Nox4 produces hydrogen peroxide rather than superoxide; under these conditions LO12 luminesces only after the addition of horseradish peroxidase to initiate the reaction.

Series [2] can be described thus: Solubility. The format is physicochemical.
For series [3], the target named is xanthine oxidase (Homo sapiens (Human), UniProt P47989). The series can be described thus: Assay control: xanthine oxidase (XO) replaces Nox2 as the source of ROS, LO12 luminescence. The format is biochemical. Conditions: Table 2, xanthine oxidase control. The protocol:
Assay controls. To rule out interference with either Nox2 or Nox4 luminescence assays, two approaches are used. In one, xanthine oxidase replaces the Nox2 enzymatic system as the source of ROS in the Nox2/LO12 assay. Xanthine is added to initiate the reaction and LO12 luminescence is recorded. In the other, exogenous H2O2 is supplied in place of the Nox4 expressing H2O2-generating cells and luminescence is recorded.

Series [4] addresses T1, Nox2 (Homo sapiens (Human), UniProt P04839). The series can be described thus: Nox2 assay in human neutrophils (PMN), LO12 luminescence. The format is cell-based. The protocol: as §1
Target sequence in this assay (P04839 whole entry, looked up): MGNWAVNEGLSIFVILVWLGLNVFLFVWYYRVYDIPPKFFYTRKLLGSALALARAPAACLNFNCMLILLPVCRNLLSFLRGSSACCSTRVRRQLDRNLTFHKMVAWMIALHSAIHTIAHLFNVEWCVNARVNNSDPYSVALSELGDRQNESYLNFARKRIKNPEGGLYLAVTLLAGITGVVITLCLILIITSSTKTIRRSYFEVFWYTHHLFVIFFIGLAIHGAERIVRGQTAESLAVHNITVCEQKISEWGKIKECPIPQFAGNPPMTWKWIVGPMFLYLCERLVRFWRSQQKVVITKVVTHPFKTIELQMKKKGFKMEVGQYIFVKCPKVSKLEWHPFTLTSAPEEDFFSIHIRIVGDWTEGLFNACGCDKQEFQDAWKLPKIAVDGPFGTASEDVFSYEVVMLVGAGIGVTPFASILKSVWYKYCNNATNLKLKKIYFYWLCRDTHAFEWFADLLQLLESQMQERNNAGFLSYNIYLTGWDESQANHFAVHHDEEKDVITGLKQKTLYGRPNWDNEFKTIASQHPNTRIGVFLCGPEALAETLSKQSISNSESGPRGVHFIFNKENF
Target sequence in this assay (P13498 whole entry partner, looked up): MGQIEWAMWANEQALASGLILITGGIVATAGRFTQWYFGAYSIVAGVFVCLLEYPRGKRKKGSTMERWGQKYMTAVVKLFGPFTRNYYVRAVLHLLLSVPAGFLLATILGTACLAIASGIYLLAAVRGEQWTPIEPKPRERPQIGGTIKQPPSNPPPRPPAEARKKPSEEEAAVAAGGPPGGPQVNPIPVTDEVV
Series [5] concerns the target Nox1 (Homo sapiens (Human), UniProt Q9Y5S8). The series can be described thus: Nox1 inhibition. The format is biochemical. As to conditions: Table 3.
A short description of series [6]: Stability in liver S9-fractions, human. The format is in vitro ADME. Conditions: read-out: Stability in liver S9-fractions (t ½) Human (converted).
The nature of series [7]: Stability in liver S9-fractions, dog. The format is in vitro ADME. Conditions: read-out: Stability in liver S9-fractions (t ½) Dog (converted).
Series [8] in a line: Stability in liver S9-fractions, mouse. The format is in vitro ADME. Conditions: read-out: Stability in liver S9-fractions (t ½) Mouse (converted).
Series [9] addresses T1, Nox2. The experiment in a line: Nox2 activity assay for primary screening (cell free, human neutrophil plasma membranes, LO12 luminescence). The format is biochemical. The method, then: Nox2 activity assay for primary screening: Plasma membranes were prepared from human neutrophils, which express large amounts of Nox2, stored at −80 C until use. See Curnutte et al., J. Biol. Chem. 1987, 262, 6450-6452, hereby incorporated by reference. Membranes are mixed with recombinant, purified cytosolic regulatory proteins (p67Np47N chimera, and a constitutively active mutant of Rac, Rac1(Q61)) and FAD, along with varying concentrations of compound, and LO12, which emits light when it reacts with ROS. The reaction is initiated by addition of NADPH and SDS (an artificial activator of Nox2).
Target sequence in this assay (P04839 2-570): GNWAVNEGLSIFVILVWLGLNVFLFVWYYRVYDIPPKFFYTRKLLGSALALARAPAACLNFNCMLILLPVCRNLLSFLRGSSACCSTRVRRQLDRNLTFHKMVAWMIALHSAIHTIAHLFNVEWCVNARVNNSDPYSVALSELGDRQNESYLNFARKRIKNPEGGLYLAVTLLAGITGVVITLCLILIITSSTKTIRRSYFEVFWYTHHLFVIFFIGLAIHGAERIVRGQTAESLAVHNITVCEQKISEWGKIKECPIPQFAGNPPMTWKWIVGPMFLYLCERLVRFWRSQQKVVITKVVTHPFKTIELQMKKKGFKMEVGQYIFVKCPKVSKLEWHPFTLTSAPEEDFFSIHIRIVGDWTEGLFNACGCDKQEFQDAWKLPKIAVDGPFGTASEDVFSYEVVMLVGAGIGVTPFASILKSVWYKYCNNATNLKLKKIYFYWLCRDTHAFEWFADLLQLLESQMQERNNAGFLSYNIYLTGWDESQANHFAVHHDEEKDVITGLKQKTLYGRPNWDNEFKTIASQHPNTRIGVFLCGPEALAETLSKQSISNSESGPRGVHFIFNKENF

Some results are limits rather than exact numbers.

For orientation: solubility means the dissolved amount per volume that the medium holds. A lower solubility goes with little dissolved substance.

human Nox4, sequence (Q9NPH5 whole entry): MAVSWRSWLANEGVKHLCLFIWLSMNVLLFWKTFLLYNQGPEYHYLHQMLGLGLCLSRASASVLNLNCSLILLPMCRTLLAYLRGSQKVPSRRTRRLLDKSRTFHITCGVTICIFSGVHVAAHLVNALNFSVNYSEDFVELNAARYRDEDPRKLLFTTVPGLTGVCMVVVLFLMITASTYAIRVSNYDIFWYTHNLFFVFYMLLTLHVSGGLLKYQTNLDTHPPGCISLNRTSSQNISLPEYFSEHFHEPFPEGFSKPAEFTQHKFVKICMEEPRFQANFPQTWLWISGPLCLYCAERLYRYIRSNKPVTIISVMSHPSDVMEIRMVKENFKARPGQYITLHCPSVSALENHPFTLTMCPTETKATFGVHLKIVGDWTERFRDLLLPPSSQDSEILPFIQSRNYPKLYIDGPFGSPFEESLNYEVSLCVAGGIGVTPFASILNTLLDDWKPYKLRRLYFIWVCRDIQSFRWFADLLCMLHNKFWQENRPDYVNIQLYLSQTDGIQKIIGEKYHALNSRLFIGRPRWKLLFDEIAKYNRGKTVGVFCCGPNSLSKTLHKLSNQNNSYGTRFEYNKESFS
human Nox4, sequence (P13498 2-195 partner): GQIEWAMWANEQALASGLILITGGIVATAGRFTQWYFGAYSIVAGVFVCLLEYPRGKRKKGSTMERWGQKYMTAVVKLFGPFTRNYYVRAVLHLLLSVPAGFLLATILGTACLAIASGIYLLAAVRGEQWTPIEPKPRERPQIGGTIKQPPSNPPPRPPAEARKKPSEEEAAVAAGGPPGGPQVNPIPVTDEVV
xanthine oxidase, sequence (P47989 whole entry, species assumed): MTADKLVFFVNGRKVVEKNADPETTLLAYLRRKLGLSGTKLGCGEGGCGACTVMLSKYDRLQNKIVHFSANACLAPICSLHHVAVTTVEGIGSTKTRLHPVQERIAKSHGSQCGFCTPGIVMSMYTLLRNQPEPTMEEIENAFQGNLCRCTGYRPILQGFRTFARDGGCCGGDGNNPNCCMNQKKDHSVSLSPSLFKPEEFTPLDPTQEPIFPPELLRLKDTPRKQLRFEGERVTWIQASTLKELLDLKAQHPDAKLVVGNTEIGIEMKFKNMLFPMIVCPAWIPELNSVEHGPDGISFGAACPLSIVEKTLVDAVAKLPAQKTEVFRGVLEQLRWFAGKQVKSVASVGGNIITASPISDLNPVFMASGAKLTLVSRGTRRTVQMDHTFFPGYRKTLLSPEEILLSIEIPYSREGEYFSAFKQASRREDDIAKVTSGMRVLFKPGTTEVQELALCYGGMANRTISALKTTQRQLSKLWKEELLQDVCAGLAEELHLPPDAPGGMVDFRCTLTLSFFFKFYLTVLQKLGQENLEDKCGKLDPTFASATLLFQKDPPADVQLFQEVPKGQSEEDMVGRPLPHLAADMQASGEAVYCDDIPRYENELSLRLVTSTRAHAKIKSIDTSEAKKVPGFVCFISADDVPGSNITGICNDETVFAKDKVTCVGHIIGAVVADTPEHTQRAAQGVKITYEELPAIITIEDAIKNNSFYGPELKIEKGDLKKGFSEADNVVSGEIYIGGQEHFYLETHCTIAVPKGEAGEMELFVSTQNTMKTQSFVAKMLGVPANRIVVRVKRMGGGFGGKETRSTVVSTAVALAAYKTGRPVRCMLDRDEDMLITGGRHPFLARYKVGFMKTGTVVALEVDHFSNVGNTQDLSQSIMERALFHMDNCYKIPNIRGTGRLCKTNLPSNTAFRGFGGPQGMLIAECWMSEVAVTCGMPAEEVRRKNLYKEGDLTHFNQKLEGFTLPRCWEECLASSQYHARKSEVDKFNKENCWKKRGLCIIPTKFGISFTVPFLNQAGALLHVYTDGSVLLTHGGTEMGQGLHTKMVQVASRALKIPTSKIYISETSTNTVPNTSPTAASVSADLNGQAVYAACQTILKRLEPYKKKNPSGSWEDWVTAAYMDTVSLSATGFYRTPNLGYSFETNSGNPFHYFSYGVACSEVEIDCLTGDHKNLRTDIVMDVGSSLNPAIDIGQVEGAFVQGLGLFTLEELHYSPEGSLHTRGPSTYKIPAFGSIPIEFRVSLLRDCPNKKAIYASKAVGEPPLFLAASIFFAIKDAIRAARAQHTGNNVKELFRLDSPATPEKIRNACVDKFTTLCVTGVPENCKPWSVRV
Nox1, sequence (Q9Y5S8 whole entry, species assumed): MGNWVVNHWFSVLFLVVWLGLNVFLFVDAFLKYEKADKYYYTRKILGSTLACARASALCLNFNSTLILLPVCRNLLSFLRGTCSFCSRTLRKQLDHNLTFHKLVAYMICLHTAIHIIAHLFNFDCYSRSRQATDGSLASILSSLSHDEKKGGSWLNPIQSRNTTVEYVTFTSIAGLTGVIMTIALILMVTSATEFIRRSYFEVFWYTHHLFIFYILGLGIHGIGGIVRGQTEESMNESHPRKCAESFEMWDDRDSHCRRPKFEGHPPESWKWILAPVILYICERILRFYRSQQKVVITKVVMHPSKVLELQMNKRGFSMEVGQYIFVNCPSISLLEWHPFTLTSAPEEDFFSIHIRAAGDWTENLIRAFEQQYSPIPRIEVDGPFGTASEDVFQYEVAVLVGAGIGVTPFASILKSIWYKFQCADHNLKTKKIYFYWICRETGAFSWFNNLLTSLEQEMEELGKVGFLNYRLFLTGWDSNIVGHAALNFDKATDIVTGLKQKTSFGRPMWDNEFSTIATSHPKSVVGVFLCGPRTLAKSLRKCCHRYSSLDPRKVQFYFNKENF
Nox1, sequence (P13498 2-195 partner, species assumed): as the sequence (P13498 2-195 partner) above

As to `COc1ccc(N2CCN(C(=O)c3cc4cc(C(C)=O)ccc4[nH]3)CC2)cc1` [TG6-161, 1-(2-(4-(4-methoxyphenyl)piperazine-1-carbonyl)-1H-indol-5-yl)ethanone], the “selectivity for Nox2 compared with Nox4” value in series [1] is recorded as no less than 100 fold. Besides, the IC50 in series [1] (using two different assays) is 20000 to 30000 nM; in series [3], greater than 20000 nM; in [4] (Table 3, human neutrophils, read-out: Nox2 (PMN)), 200 nM; in series [4] (read-out: IC50, ROS production in human neutrophils), 200 to 300 nM; in series [5], 600 nM; in series [9] (Table 2, read-out: IC50 Nox2) it was 400 nM. In addition, the IC50 in [9] (Table 3, read-out: Nox2 (Cell Free)) was 300 nM; in series [9] (read-out: IC50, Nox2 cell free system) it was 200 to 300 nM. Also, the solubility in [2] was less than 25 µM. In addition, the half-life in series [6] was 0.75 h; in series [7], 2 h; in series [8] it was 3 h.

These data come from patent US9428478B2, “Piperazine derivatives, compositions, and uses related thereto” (Emory University, priority 2011, dated 2016).
